What was measured:
[1] = tested on: rats treated with cisplatin; assay: Reversal of cisplatin-induced neuropathic pain (von Frey mechanical pain threshold); format: in vivo, rat; conditions: cisplatin i.p. 7 mg/kg total, day 14; 30 mg/kg oral (equimolar to DCUKA and BCUKA); 1 and 2 hours; FIG. 6
[2] = tested on: rats treated with Complete Freund's Adjuvant; assay: Combination with morphine, CFA-induced thermal hyperalgesia (radiant heat paw withdrawal test); format: in vivo, rat; conditions: thermal hyperalgesia after CFA
Experimental: Thermal Hypersensitivity Test (Radiant Heat Paw Withdrawal Test). Rats were placed in clear plastic chambers on a glass surface and were habituated for 15 minutes before testing. Thermal sensitivity was measured by using paw withdrawal latency to a radiant heat stimulus. A radiant heat source (i.e., infrared) was activated with a timer and focused onto the plantar surface of the left hind paw. A motion detector that halted both lamp and timer when the paw was withdrawn determined paw withdrawal latency. The latencies were measured before and after drug or vehicle administration. A maximum cutoff of 33 seconds was used to prevent tissue damage.

[3] = tested on: rats treated with Complete Freund's Adjuvant; assay: Combination with morphine, CFA-induced pain, mechanical pain threshold; format: in vivo, rat; conditions: FIG. 15 Panel A
[4] = target: GABA site, GABA-A Receptor; assay: PDSP radioligand displacement, [^3H]Muscimol; set-up: species or system rat; conditions: read-out: Binding constant Ki, GABA site, GABA-A Receptor
[5] = target: T1, GABA-A receptors (α1, β2, γ2s subunits) (UniProt P18508+P47870+P62813); assay: Two-electrode voltage clamp, GABA-A receptors expressed in Xenopus oocytes; format: cell-based, rat α1 and γ2s, human β2; conditions: for Efficacy among five DCUK derivatives: potentiation of GABA response, FIG. 4C
T1 construct: expressed in transfected cells; host or cells: Xenopus laevis oocytes injected with capped cRNAs (α1:β2:γ2s 2:2:20 ng)
Experimental: Xenopus laevis frogs were obtained from Nasco (Fort Atkinson, Wis., USA). The complementary DNAs encoding the GABAA subunits rat α1 and γ2s and human β2 were provided by Dr. M. H. Akabas and Dr. Paul Whiting, respectively. The in vitro transcription of α1, β2, and γ2s subunits was performed using mMessage mMachine® (Life Technologies, Grand Island, N.Y.). After isolation of Xenopus laevis oocytes, they were injected with capped complementary RNAs encoding α1, β2, and γ2s subunits in a ratio 2:2:20 ng. The injected oocytes were incubated at 15° C. in sterilized Barth's solution [MBS; composition: 88 mM NaCl, 1 mM KCl, 10 mM HEPES, 0.82 mM MgSO4, 2.4 mM NaHCO3, 0.91 mM CaCl2), and 0.33 mM Ca(NO3)2, pH 7.5] for 3-5 days before recording. All surgery was performed according to an approved institutional protocol. The responses of GABAARs expressed in oocytes were studied through two-electrode voltage clamp (Oocyte Clamp OC-725C, Warner Instruments, Hamden, Conn.), recording through a POWERLAB 4/30 system (ADInstruments, Colorado Springs, Colo.). The oocyte was placed in a chamber perfused with MBS, and voltage-clamped at −70 mV.

cannabinoid CB1 receptor = target: T2, cannabinoid CB1 receptor (Homo sapiens, UniProt P21554); assay: cAMP accumulation, HeLa cells transfected with CB1 receptor, D1 receptor and AC7; format: cell-based; conditions: for Effect on cAMP accumulation in the presence of dopamine: CB1 receptor, D1, AC7, DCUK-OEt 10 μM, ACEA 10 μM, FIG. 1
T2 construct: expressed in transfected cells; host or cells: HeLa (ATCC), calcium phosphate transient transfection

[6] = tested on: alcohol-dependent male Wistar rats; assay: Alcohol deprivation model of relapse drinking in alcohol-dependent rats; format: in vivo, rat; conditions: for Relapse drinking (alcohol intake after deprivation): FIG. 17
Experimental: This model is thoroughly described in a paper by (Spanagel and Holter, 1999). The model consists of a conditioning phase where individually housed male Wistar rats are allowed ad libitum access to food and 0, 5, 10 and 20% alcohol solutions in a four-bottle choice paradigm. The rats are weighed every 3rd and 4th day and food and fluid consumption is measured. The positions of bottles are changed once a week and after two months of continuous alcohol access, rats are deprived of alcohol for two weeks. After the deprivation phase, all alcohol solutions are presented again for 5 weeks and the procedure is repeated for ˜1 year. At this point an alcohol deprivation phase is instituted. Pre-deprivation (baseline) drinking is recorded for 3-4 days and then all alcohol is taken from the animals and they are only given water to drink for two weeks. Following alcohol deprivation, alcohol intake (total grams of ethanol/kg body weight) and water intake (ml/kg body weight) are measured daily. The alcohol preference ratio is calculated as (ethanol consumption [g/kg])/(water consumption [ml/kg]).
For this experiment, animals were divided into groups of 6-8 rats such that the mean baseline total alcohol intake was approximately the same (˜2.8 g/kg/day) across all groups. Baseline drinking was monitored followed by 14 days of alcohol deprivation. Each animal then received i.p. injections of DCUK-OEt twice daily at 12 hour intervals starting at 7 PM prior to the reintroduction of ethanol for a total of 3 (20 mg/kg) or 5 injections (75 mg/kg). Acamprosate, an already marketed agent for reducing relapse, was used as a positive control and four doses of 50 mg/kg or 200 mg/kg were injected over a two-day period. Alcohol bottles were re-introduced after the first (acamprosate) or second (DCUK-OEt) injection.

ethanol dependent rats = assay: Operant responding for alcohol in ethanol vapor-exposed dependent rats; format: in vivo, rat; conditions: FIG. 18
Text: This example illustrates that ethanol dependent rats are motivated to work for ethanol reward during a period of forced abstinence and that DCUK-OEt reduces responding for the alcohol reward.
The methods used in this study are extensively described in (Vendruscolo et al., 2012). The rats were first trained to self-administer ethanol in an operant chamber. The rats were given free-choice access to alcohol (10% w/v) and water for 1 day in their home cages to habituate them to the taste of alcohol. The rats were then subjected to an overnight session in the operant chambers with access to one lever that delivered water (FR1). Food was available ad libitum during this training. After 1 day off, the rats were subjected to a 2 hour session (FR1) for 1 day and a 1 hour session (FR1) the next day, with one lever delivering alcohol. All of the subsequent sessions lasted 30 minutes, and two levers were available (left lever: water; right lever: alcohol). Once trained, the rats were made dependent by chronic, intermittent exposure to alcohol vapors (Gilpin et al., 2008). They underwent cycles of 14 hours of ethanol exposure (blood alcohol levels during vapor exposure ranged between 150 and 250 mg %) and 10 hours in the absence of ethanol vapor, during which behavioral testing for acute withdrawal occurred (i.e., 6-8 hours after vapor was turned off, when brain and blood alcohol levels were negligible). Nondependent rats were those not exposed to alcohol vapor. Pharmacological testing occurred after at least 2 months of vapor exposure, when full dependence was observed. DCUKA-OEt was administered i.p. at the doses specified in FIG. 18, sixty minutes prior to placing the animal in the operant chamber. The vehicle for DCUK-OEt was injected in certain animals as a control.

[7] = tested on: rats treated with streptozotocin; assay: Combination with aspirin, STZ-induced neuropathic pain (von Frey); format: in vivo, rat; conditions: aspirin 25 mg/kg, 60 min before test; FIG. 16
Experimental: After administration of streptozotocin (STZ) as described in Example 5, rats were tested for allodynia using a von Frey apparatus. Sixty minutes prior to testing, rats were divided into four groups. Group 1 received vehicle; group 2 received DCUKA; group 3 received aspirin; and group 4 received a combination of DCUKA and aspirin.

delta opiate receptor [8] = target: T3, delta opiate receptor (Homo sapiens, UniProt P41143); assay: cAMP accumulation, HEK293 cells transfected with DA receptor, delta opiate receptor and AC7; format: cell-based; set-up: expressed in transfected cells; host or cells: HEK293 (ATCC), calcium phosphate transient transfection; conditions: naltrindole 10 μM
[9] = tested on: rats treated with Complete Freund's Adjuvant; assay: Naltrindole reversal of the effect of DCUKA on CFA-induced neuropathic pain; format: in vivo, rat
Experimental: Rats were tested for baseline mechanical pain threshold (von Frey test) and given an intraplantar injection of Complete Freunds Adjuvant (CFA) in the left hind paw.

delta opiate receptor [10] = target: T3, delta opiate receptor; assay: cAMP accumulation, HeLa cells transfected with D1 receptor, DOR and AC5; format: cell-based; set-up: expressed in transfected cells; conditions: not shown

T2 sequence (P21554 whole entry): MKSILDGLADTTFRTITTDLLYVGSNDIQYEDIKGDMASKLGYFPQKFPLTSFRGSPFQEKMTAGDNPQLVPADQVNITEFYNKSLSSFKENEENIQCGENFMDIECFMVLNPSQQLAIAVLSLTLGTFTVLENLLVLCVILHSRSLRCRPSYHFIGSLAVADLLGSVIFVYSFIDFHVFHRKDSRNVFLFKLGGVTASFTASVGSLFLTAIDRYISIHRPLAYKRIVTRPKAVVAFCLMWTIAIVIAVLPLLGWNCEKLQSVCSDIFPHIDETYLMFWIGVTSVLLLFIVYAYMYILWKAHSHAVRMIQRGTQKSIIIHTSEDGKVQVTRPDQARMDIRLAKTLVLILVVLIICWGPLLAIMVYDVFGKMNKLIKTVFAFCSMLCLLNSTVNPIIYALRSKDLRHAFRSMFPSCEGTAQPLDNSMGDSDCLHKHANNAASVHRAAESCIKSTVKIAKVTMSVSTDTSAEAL
T1 sequence (P62813 28-455): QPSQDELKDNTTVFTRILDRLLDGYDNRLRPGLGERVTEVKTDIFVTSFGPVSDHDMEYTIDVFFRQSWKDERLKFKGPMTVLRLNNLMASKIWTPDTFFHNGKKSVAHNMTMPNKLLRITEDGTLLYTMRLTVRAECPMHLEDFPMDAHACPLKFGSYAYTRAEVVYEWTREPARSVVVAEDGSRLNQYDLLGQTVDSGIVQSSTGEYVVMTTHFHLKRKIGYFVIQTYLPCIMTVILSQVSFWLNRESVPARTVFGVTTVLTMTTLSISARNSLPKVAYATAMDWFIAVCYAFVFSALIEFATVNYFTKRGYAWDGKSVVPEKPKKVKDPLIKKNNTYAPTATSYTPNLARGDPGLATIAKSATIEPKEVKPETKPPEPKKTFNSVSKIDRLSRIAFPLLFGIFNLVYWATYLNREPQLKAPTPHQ
T1 sequence (P47870 26-474 isoform P47870-1 limits assumed): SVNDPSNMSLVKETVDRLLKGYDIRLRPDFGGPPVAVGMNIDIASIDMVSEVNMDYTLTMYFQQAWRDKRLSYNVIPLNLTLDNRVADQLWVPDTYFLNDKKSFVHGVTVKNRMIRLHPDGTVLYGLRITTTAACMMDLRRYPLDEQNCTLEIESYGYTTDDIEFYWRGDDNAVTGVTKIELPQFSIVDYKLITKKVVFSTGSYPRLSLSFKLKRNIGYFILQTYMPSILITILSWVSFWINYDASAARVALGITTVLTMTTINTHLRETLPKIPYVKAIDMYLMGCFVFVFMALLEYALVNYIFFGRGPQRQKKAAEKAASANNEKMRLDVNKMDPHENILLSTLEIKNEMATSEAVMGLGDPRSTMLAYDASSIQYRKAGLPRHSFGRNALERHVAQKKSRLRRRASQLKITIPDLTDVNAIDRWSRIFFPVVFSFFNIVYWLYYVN
T1 sequence (P18508 39-466): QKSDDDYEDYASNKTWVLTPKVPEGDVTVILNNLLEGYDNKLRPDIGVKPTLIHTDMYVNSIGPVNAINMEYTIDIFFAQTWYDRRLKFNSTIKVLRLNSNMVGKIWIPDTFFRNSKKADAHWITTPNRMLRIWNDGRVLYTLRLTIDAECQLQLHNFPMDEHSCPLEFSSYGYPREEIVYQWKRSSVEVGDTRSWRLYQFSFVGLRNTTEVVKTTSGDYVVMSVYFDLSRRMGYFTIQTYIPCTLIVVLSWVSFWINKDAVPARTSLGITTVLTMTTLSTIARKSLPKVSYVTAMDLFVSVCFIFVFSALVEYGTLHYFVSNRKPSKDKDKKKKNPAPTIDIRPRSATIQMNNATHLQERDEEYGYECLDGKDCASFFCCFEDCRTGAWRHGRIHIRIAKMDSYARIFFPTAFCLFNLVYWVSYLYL
T3 sequence (P41143 whole entry): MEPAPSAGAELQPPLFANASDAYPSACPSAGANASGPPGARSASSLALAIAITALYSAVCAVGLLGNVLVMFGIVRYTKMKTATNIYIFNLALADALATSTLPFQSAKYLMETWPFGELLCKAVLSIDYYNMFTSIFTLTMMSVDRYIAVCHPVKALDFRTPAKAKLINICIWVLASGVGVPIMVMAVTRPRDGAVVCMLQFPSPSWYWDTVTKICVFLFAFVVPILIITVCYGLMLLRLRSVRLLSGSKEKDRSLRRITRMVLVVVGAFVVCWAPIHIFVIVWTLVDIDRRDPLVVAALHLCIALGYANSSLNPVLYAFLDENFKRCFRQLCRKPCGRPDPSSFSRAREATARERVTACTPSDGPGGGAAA

NCC1(CC(=O)O)CCCCC1 [Gabapentin, gabapentin, reference compound]
Mechanical pain threshold, ratio to baseline [1]: did not significantly reverse

CN1CC[C@]23c4c5ccc(O)c4O[C@H]2[C@@H](O)C=C[C@H]3[C@H]1C5 [morphine, reference compound]
Antihyperalgesic response ([2]; morphine alone 0.2 mg/kg): ~20% | Analgesia, each agent alone at the dose used for the combination [3]: ineffective in producing analgesia

CCOC(=O)c1cc(NC(=O)N(c2ccccc2)c2ccccc2)c2c(Cl)cc(Cl)cc2n1 [DCUK-OEt]
Ki [4]: 1.7 ± 0.3 µM | Antihyperalgesic response ([2]; 6.4 mg of DCUK-OEt combined with 0.2 mg/kg morphine): 40% | Character of action at the GABA-A receptor ([5]; FIG. 4A): positive allosteric modulators (PAM) | GABA-induced chloride currents ([5]; co-applied with EC10 GABA, FIG. 4A): significantly enhanced GABA-induced currents | Efficacy among five DCUK derivatives [5]: most efficacious | Chloride currents, compound alone ([5]; without GABA, FIG. 4A): no effect on chloride currents by themselves | Character of action at the CB1 cannabinoid receptor (cannabinoid CB1 receptor; AC7, alone and together with ACEA): weak partial agonist | Effect on cAMP accumulation in the presence of dopamine (cannabinoid CB1 receptor): significant increase in cAMP accumulation | Relapse drinking (alcohol intake after deprivation) ([6]; 20 mg/kg i.p. twice daily, 3 injections): transient, but significant, reduction in relapse drinking | Water consumption ([6]; 75 mg/kg DCUK-OEt, data not shown): increased consumption of water | Relapse drinking (alcohol intake after deprivation) ([6]; 75 mg/kg i.p. twice daily, 5 injections): almost complete abolition of alcohol intake | Alcohol self-administration (ethanol dependent rats; 20 mg/kg i.p., 60 min before session, ethanol vapor-exposed rats): brought the ethanol vapor exposed rats down to the same level of self-administration as non-ethanol pretreated control rats | Lever pressing for ethanol (ethanol dependent rats; 35 and 50 mg/kg i.p., alcohol-dependent rats): reduced lever pressing for ethanol to even lower levels | Lever pressing for water (ethanol dependent rats; all doses tested, alcohol dependent rats): No effect

CCCC(=O)c1cc(NC(=O)N(c2ccccc2)c2ccccc2)c2c(Cl)cc(Cl)cc2n1 [DCUK-butanone, 3-(2-Butyryl-5,7-dichloroquinolin-4-yl)-1,1-diphenylurea]
Efficacy among five DCUK derivatives [5]: most efficacious

CCCCC/C=C\C/C=C\C/C=C\C/C=C\CCCC(=O)NCCCl [ACEA, reference compound]
Effect on cAMP accumulation in the presence of dopamine (cannabinoid CB1 receptor): increased the accumulation of cAMP

CC(=O)Oc1ccccc1C(=O)O [aspirin, reference compound]
Effect on allodynia, alone [7]: do not have any significant effect on allodynia

Oc1ccc2c3c1O[C@H]1c4[nH]c5ccccc5c4C[C@@]4(O)[C@@H](C2)N(CC2CC2)CC[C@]314 [Naltrindole, reference compound]
Effect of DOR antagonist on the BCUKA-induced cAMP increase (delta opiate receptor [8]): reversed | Effect of intraplantar naltrindole on the DCUKA effect ([9]; Naltrindole 10 μg per paw s.c. 45 min after DCUKA 50 mg/kg oral, tested 15 min later): reversed the anti-allodynic effect of DCUKA | Effect of naltrindole alone on pain threshold ([9]; Naltrindole 10 μg per paw with vehicle): no effect on its own | Effect of DOR antagonist on the DCUKA inhibition of cAMP accumulation (delta opiate receptor [10]): reversed

CC(=O)NCCCS(=O)(=O)O [acamprosate, reference compound]
Relapse drinking (alcohol intake after deprivation) ([6]; acamprosate 50 mg/kg, four doses over two days, positive control): transient, but significant, reduction in relapse drinking

From patent US10435371B2, “Multifunctional aminoquinoline therapeutic agent” (LOHOCLA RESEARCH CORPORATION, priority 2014, dated 2019)
